Assay results from PubChem BioAssay AID330 (DTP/NCI, 2004).
Several values for one entry are separate records, joined by “and”; a condition that tells them apart may be missing. Equal entries are not always repeated. Inconclusive results and toxic doses are left out. Rule for the calls: active = survival T/C of 150% or more; inactive = T/C below 125% in these data.

System: P388 leukemia ip, CD2F1 mice, survival T/C
Assay: NCI In Vivo Anticancer Drug Screen. Data for tumor model P388 Leukemia (intraperitoneal) in CD2F1 (CDF1) mice
Details: endpoint: median survival time, higher = longer survival
In short: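 Mice carrying the transplanted tumor received test compound or vehicle. Survival was recorded in each group, and the value is the treated-group measurement divided by that of the vehicle-treated control group.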

[1] = dose: 60.0 mg/kg/injection, schedule: Q01DX005 (ip), vehicle: saline with Tween-80
[2] = dose: 12.5 mg/kg/injection, schedule: Q01DX009 (ip), vehicle: saline
[3] = dose: 25.0 mg/kg/injection, schedule: Q01DX009 (ip), vehicle: saline
[4] = dose: 50.0 mg/kg/injection, schedule: Q01DX009 (ip), vehicle: saline
[5] = dose: 200.0 mg/kg/injection, schedule: Q01DX009 (ip), vehicle: saline
[6] = dose: 120.0 mg/kg/injection, schedule: Q01DX005 (ip), vehicle: saline with Tween-80
[7] = dose: 240.0 mg/kg/injection, schedule: Q01DX005 (ip), vehicle: saline with Tween-80
[8] = dose: 12.5 mg/kg/injection, schedule: Q01DX009 (ip), vehicle: saline with Tween-80
[9] = dose: 60.0 mg/kg/injection, schedule: Q01DX005 (ip), vehicle: Klucel (hydroxypropylcellulose) (HPC)
[10] = dose: 120.0 mg/kg/injection, schedule: Q01DX005 (ip), vehicle: Klucel (hydroxypropylcellulose) (HPC)
[11] = dose: 50.0 mg/kg/injection, schedule: Q01DX005 (ip), vehicle: Klucel (hydroxypropylcellulose) (HPC)
[12] = dose: 100.0 mg/kg/injection, schedule: Q01DX005 (ip), vehicle: Klucel (hydroxypropylcellulose) (HPC)
[13] = dose: 200.0 mg/kg/injection, schedule: Q01DX005 (ip), vehicle: Klucel (hydroxypropylcellulose) (HPC)
[14] = dose: 50.0 mg/kg/injection, schedule: Q01DX005 (ip), vehicle: saline with Tween-80
[15] = dose: 100.0 mg/kg/injection, schedule: Q01DX005 (ip), vehicle: saline with Tween-80

Measured: T/C

CCOC(=O)C12CC(COc3ccc([N+](=O)[O-])cc3)ON1OC(COc1ccc([N+](=O)[O-])cc1)C2 (stereo not drawn)
inactive: dose: 15.0 mg/kg/injection, schedule: Q01DX005 (ip), vehicle: saline with Tween-80 93 % of control | dose: 30.0 mg/kg/injection, schedule: Q01DX005 (ip), vehicle: saline with Tween-80 90 % of control | [1] 86 % of control and 88 % of control

O=C1C=CC(=O)N1c1ccc2c(c1)oc(=O)c1ccccc12
inactive: [2] 95 % of control | [3] 92 % of control | [4] 90 % of control | dose: 100.0 mg/kg/injection, schedule: Q01DX009 (ip), vehicle: saline 100 % of control | [5] 99 % of control | dose: 400.0 mg/kg/injection, schedule: Q01DX009 (ip), vehicle: saline 110 % of control

O=C1C2CCSCN2C(=O)N1c1ccccc1 (stereo not drawn)
inactive: [1] 95 % of control | [6] 103 % of control | [7] 95 % of control

CNC1=CC(=O)c2c(c3cc(O)ccc3n2C)C1=O
inactive: [2] 103 % of control | [3] 103 % of control | [4] 103 % of control and 87 % of control | [5] 104 % of control

O=C(/C=C/C1N=C1c1ccccc1)c1ccccc1 (stereo not drawn)
inactive: dose: 25.0 mg/kg/injection, schedule: Q01DX001 (ip), vehicle: Klucel (hydroxypropylcellulose) (HPC) 100 % of control | dose: 50.0 mg/kg/injection, schedule: Q01DX001 (ip), vehicle: Klucel (hydroxypropylcellulose) (HPC) 107 % of control | dose: 100.0 mg/kg/injection, schedule: Q01DX001 (ip), vehicle: Klucel (hydroxypropylcellulose) (HPC) 106 % of control and 107 % of control

CCOc1ccc(C(C#N)N(C)C)cc1OCC (stereo not drawn)
inactive: [8] 105 % of control | dose: 25.0 mg/kg/injection, schedule: Q01DX009 (ip), vehicle: saline with Tween-80 100 % of control | dose: 50.0 mg/kg/injection, schedule: Q01DX009 (ip), vehicle: saline with Tween-80 86 % of control and 92 % of control

S=c1nc[nH]c2c1ncn2C1CCCCO1 (stereo not drawn)
inactive: dose: 15.0 mg/kg/injection, schedule: Q01DX009 (ip), vehicle: saline with Tween-80 86 % of control | dose: 30.0 mg/kg/injection, schedule: Q01DX009 (ip), vehicle: saline with Tween-80 104 % of control | dose: 60.0 mg/kg/injection, schedule: Q01DX009 (ip), vehicle: saline with Tween-80 113 % of control | dose: 62.5 mg/kg/injection, schedule: Q01DX009 (ip), vehicle: Klucel (hydroxypropylcellulose) (HPC) 86 % of control | dose: 100.0 mg/kg/injection, schedule: Q01DX009 (ip), vehicle: saline with Tween-80 118 % of control | dose: 100.0 mg/kg/injection, schedule: Q04DX003 (ip), vehicle: saline with Tween-80 91 % of control | dose: 120.0 mg/kg/injection, schedule: Q01DX009 (ip), vehicle: saline with Tween-80 108 % of control | dose: 125.0 mg/kg/injection, schedule: Q01DX009 (ip), vehicle: Klucel (hydroxypropylcellulose) (HPC) 109 % of control | dose: 200.0 mg/kg/injection, schedule: Q01DX009 (ip), vehicle: saline with Tween-80 104 % of control | dose: 200.0 mg/kg/injection, schedule: Q04DX003 (ip), vehicle: saline with Tween-80 108 % of control | dose: 250.0 mg/kg/injection, schedule: Q01DX009 (ip), vehicle: Klucel (hydroxypropylcellulose) (HPC) 90 % of control | dose: 400.0 mg/kg/injection, schedule: Q04DX003 (ip), vehicle: saline with Tween-80 112 % of control

CCOC1(NC(=O)N(C)C)C2CCCC21 (stereo not drawn)
inactive: dose: 25.0 mg/kg/injection, schedule: Q01DX009 (ip), vehicle: Klucel (hydroxypropylcellulose) (HPC) 97 % of control | dose: 50.0 mg/kg/injection, schedule: Q01DX009 (ip), vehicle: Klucel (hydroxypropylcellulose) (HPC) 97 % of control | dose: 100.0 mg/kg/injection, schedule: Q01DX009 (ip), vehicle: Klucel (hydroxypropylcellulose) (HPC) 94 % of control

O=C(CNC(=O)c1ccc(Cl)cc1Cl)N/N=C/c1ccc(Cl)c(Cl)c1
inactive: dose: 3.13 mg/kg/injection, schedule: Q01DX009 (ip), vehicle: saline with Tween-80 104 % of control | dose: 6.25 mg/kg/injection, schedule: Q01DX009 (ip), vehicle: saline with Tween-80 108 % of control | [8] 104 % of control

O=S(=O)(c1ccc2ccccc2c1)N(CCCCCN(S(=O)(=O)c1ccc2ccccc2c1)S(=O)(=O)c1ccc2ccccc2c1)S(=O)(=O)c1ccc2ccccc2c1
inactive: [1] 104 % of control | [6] 94 % of control

O=S(=O)(c1cc(Cl)c(Cl)cc1Cl)N(CCCCCN(S(=O)(=O)c1cc(Cl)c(Cl)cc1Cl)S(=O)(=O)c1cc(Cl)c(Cl)cc1Cl)S(=O)(=O)c1cc(Cl)c(Cl)cc1Cl
inactive: [9] 91 % of control | [10] 91 % of control

COc1cc2c(cc1OC)C1=[N+](CC2)C2=C(CC1)C(=O)CCC2
inactive: dose: 25.0 mg/kg/injection, schedule: Q01DX005 (ip), vehicle: Klucel (hydroxypropylcellulose) (HPC) 94 % of control | [11] 97 % of control | [12] 99 % of control | [13] 93 % of control

C=CC(C)(C)c1cc2cc3c(cc2oc1=O)OC1(C)CCC(C(C)(C)O)OC1C3 (stereo not drawn)
inactive: dose: 12.5 mg/kg/injection, schedule: Q01DX005 (ip), vehicle: saline with Tween-80 99 % of control | dose: 25.0 mg/kg/injection, schedule: Q01DX005 (ip), vehicle: saline with Tween-80 99 % of control | [14] 93 % of control | [15] 89 % of control

CC1(CCC(=O)c2ccc3c(c2)OCO3)OCCO1
inactive: [1] 116 % of control | [6] 105 % of control | [7] 100 % of control

O=C1c2ccccc2C(=O)N1CCNCCN1C(=O)c2ccccc2C1=O
inactive: [1] 103 % of control | [6] 93 % of control | [7] 93 % of control

CC1=NN(C2=NS(=O)(=O)c3ccccc3N2c2ccccc2)C(=O)C1
inactive: dose: 100.0 mg/kg/injection, schedule: Q04DX002 (ip), vehicle: saline with Tween-80 108 % of control | dose: 200.0 mg/kg/injection, schedule: Q04DX002 (ip), vehicle: saline with Tween-80 106 % of control | dose: 400.0 mg/kg/injection, schedule: Q04DX002 (ip), vehicle: saline with Tween-80 97 % of control

Cc1cc(C)nc(Nc2nnc(Nc3cc(C)cc(C)n3)c3ccccc23)c1
inactive: [14] 96 % of control | [15] 93 % of control | dose: 200.0 mg/kg/injection, schedule: Q01DX005 (ip), vehicle: saline with Tween-80 87 % of control

Cc1ccc(C)c2c1C(=O)c1ccccc1C2(O)C#Cc1ccccc1 (stereo not drawn)
inactive: [11] 101 % of control | [12] 94 % of control | [13] 94 % of control

O=c1cc(-c2ccccc2)nc2cc(-c3ccco3)[nH]n12
inactive: [1] 102 % of control | [6] 107 % of control | [7] 111 % of control

CCCN(CCC)c1ncnc2[nH]ncc12
inactive: dose: 50.0 mg/kg/injection, schedule: Q01DX005 (ip), vehicle: saline 92 % of control | dose: 100.0 mg/kg/injection, schedule: Q01DX005 (ip), vehicle: saline 92 % of control

COc1cc(O)c2c(c1O)C1(C)C(=O)CCCC1(O)CC2=O (stereo not drawn)
inactive: dose: 100.0 mg/kg/injection, schedule: Q01DX001 (ip), vehicle: saline with Tween-80 90 % of control | dose: 200.0 mg/kg/injection, schedule: Q01DX001 (ip), vehicle: saline with Tween-80 100 % of control | dose: 400.0 mg/kg/injection, schedule: Q01DX001 (ip), vehicle: saline with Tween-80 100 % of control

Cc1cc2c(cc1C)NC1=C(N2)OC(c2ccc3c(c2)OCO3)C1=O (stereo not drawn)
inactive: dose: 30.0 mg/kg/injection, schedule: Q01DX005 (ip), vehicle: Klucel (hydroxypropylcellulose) (HPC) 88 % of control | [9] 101 % of control and 97 % of control | [10] 100 % of control and 104 % of control
